Source: patent US8198285B2, “Pyrazine derivatives” (Astrazeneca AB, priority 2010, dated 2012)
Counter-ions that a name gives are not always drawn.

Columns and labels:
[1] = test system: Female Sprague Dawley rats; assay: Increased bone formation in rats: femur histopathology; assay type: in vivo; conditions: rat, oral
Experimental: For in vitro osteogenesis, human adipose-derived stem cells (hADSC) (Invitrogen, UK; catalogue number R7788-115) were seeded into 12-well plates at a density of 5000 cells/cm^2 and were cultured in a basal media of phenol red-free Dulbecco's Modified Eagles Medium (DMEM; Sigma-Aldrich, UK; catalogue number D1145) supplemented with 5% fetal bovine serum (FBS, Gibco, UK; catalogue number 10270) and 2 mM GlutaMax® (Gibco; catalogue number 35050). […] In osteogenic positive control wells, basal media was replaced with a differentiation media; phenol red-free DMEM supplemented with 5% FBS, 2 mM GlutaMax®, 50 μg/ml L-ascorbic acid (Sigma-Aldrich; Catalogue no. A8960), 5 mM β-glycerophosphate (Calbiochem, UK; catalogue number 35675), and 10 nM dexamethasone (Sigma-Aldrich; catalogue number D4902). The cultures were incubated at 37° C. in 5% CO2 with media and compound was replaced every 3-4 days over a time-course of 24 days. The formation of mineralized bone nodules was assessed during the time-course using Alizarin Red S staining. At numerous times throughout the time-course, cells were fixed with 4% paraformaldehyde (Sigma-Aldrich; catalogue number P6148) for 20 min, followed by three washes with phosphate buffered saline (PBS), without calcium chloride and magnesium chloride, (Sigma-Aldrich; catalogue number D8537), before being stained with 40 mM Alizarin Red S (Sigma-Aldrich; catalogue number A5533) (pH4.2) for 20 min at room temperature. Plates were placed on a rocking platform (50 rpm) during staining After staining, cells were washed three times with PBS, and three times with water. Cells were imaged using a Leica M165FC stereomicroscope and associated Leica Application Suite imaging software (Leica Microsystems, UK). The amount of mineralisation was quantified through the extraction of the Alizarin Red S stain from bone nodules using a cetylpyridinium chloride extraction method, previously described (Gregory et al., Analytical Biochemistry, 2004, 329: 77-84; Hwang et al., Stem Cells and Development 17: 963-970, 2008). Briefly, Alizarin Red S stain was extracted from bone nodules through the addition of 1 ml, to each well, of a cetylpyridium chloride buffer consisting of 10% cetylpyridium chloride (Sigma-Aldrich; catalogue number C0732) in 10 mM Na3PO4 (Sigma-Aldrich; catalogue number 342483) (pH7.0) and incubation for 1 h at 37° C. Following incubation, 200 μl aliquots were transferred to 96-well format and the absorbance at 550 nm was determined using a microplate spectrophotometer (SpectraMax Plus, Molecular Devices, USA). Data were expressed as mean absorbance at 550 nm±Standard error of mean (SEM). Differences between groups were examined for statistical significance using one-way analysis of variance (ANOVA) followed by Tukey's multiple comparison post hoc test. P<0.05 was considered significant. […] Experiments were performed in triplicate. […] Data are shown as mean absorbance at 550 nm and analysed using one-way ANOVA followed by Tukey's multiple comparison post hoc test: n=9; ***, P<0.001. […] Female Sprague Dawley rats (Charles River CRL:CD rats, Deal, Margate, UK) aged between 12 and 16 weeks (230-340 g) were dosed with either compound or vehicle with a 5 mL/kg volume administered by oral gavage using straight steel (75 mm, 16 gauge) oral gavage feeding needles (Vet-Tech Solutions Ltd, Congleton, UK) between 7 and 10 am each day. Compound or vehicle was dosed at various doses (including 2.5, 5, 15 or 50 mg/kg/day freebase doses equivalent to 3, 6, 18 and 59 mg/kg of tri-hydrochloride salt) once a day for seven to fourteen days. In some studies a serum sample was taken prior to treatment to measure baseline serum bone biomarkers following overnight fasting. Blood was sampled from the tail vein and serum prepared by adding the blood to serum gel blood collection tubes (Microvette 500 Z-gel, catalogue number 20.1344, Sarstedt, Leicester, UK) and centrifuging the tubes for at 13000 rpm for 5 min at 4° C. […]

[2] = target: DYRK1a (Dual Specificity Tyrosine Phosphorylated and Regulated Kinase 1a) (Homo sapiens, UniProt Q13627); assay: Inhibitory activity against DYRK1a; assay type: biochemical
[3] = test system: N-terminal propeptide of type I procollagen (P1NP); assay: Bone biomarker evaluation: serum P1NP assay; assay type: in vivo, rat; conditions: oral once a day, 7 consecutive days, female CRL:CD rats
Experimental: (§1) For in vitro osteogenesis, human adipose-derived stem cells (hADSC) (Invitrogen, UK; catalogue number R7788-115) were seeded into 12-well plates at a density of 5000 cells/cm^2 and were cultured in a basal media of phenol red-free Dulbecco's Modified Eagles Medium (DMEM; Sigma-Aldrich, UK; catalogue number D1145) supplemented with 5% fetal bovine serum (FBS, Gibco, UK; catalogue number 10270) and 2 mM GlutaMax® (Gibco; catalogue number 35050). […] The formation of mineralized bone nodules was assessed during the time-course using Alizarin Red S staining. […] The amount of mineralisation was quantified through the extraction of the Alizarin Red S stain from bone nodules using a cetylpyridinium chloride extraction method, previously described (Gregory et al., Analytical Biochemistry, 2004, 329: 77-84; Hwang et al., Stem Cells and Development 17: 963-970, 2008). […] Following incubation, 200 μl aliquots were transferred to 96-well format and the absorbance at 550 nm was determined using a microplate spectrophotometer (SpectraMax Plus, Molecular Devices, USA). Data were expressed as mean absorbance at 550 nm±Standard error of mean (SEM). […] Data are shown as mean absorbance at 550 nm and analysed using one-way ANOVA followed by Tukey's multiple comparison post hoc test: n=9; ***, P<0.001. […]

[4] = test system: osteoclast-derived tartrate-resistant acid phosphatase form 5b (TRAcP-5b); assay: Bone biomarker evaluation: serum TRAcP-5b assay; assay type: in vivo, rat; conditions: oral once a day, 7 consecutive days, female CRL:CD rats
Experimental: as §1

COCCCNCCCc1ccc(-c2cnc(N)c(C(=O)Nc3cccnc3)n2)cc1 [Example 1, 3-Amino-6-(4-{3-[(3-methoxypropyl)amino]propyl}phenyl)-N-pyridin-3-ylpyrazine-2-carboxamide tri-hydrochloride]
Histopathology, morphology in the femur ([1]; 5 mg/kg, 7 or 14 days, vs vehicle): no differences in morphology in the femur
Focal bone masses in the sub-chondral region ([1]; 15 mg/kg, 14 days): 2 out of 10
Histopathology, bone formation in femur ([1]; 15 mg/kg, 14 days): evidence of bone formation in both the sub-chondral region and cortical region
Histopathology, bone marrow ([1]; 50 mg/kg, 7 days): histological evidence of bone marrow cell mobilization and differentiation
Histopathology, cancellous bone compartment ([1]; 50 mg/kg, 7 days): evidence of increased bone within the cancellous bone compartment
Histopathology, bone changes in femur ([1]; 50 mg/kg, 14 days): broader range of bone changes suggestive of bone formation
Histopathology, osteoblast hypertrophy ([1]; 15 and 50 mg/kg, 7 days): evidence of osteoblast hypertrophy
Histopathology, osteoid and bone in femur ([1]; 15 and 50 mg/kg, 7 days): dose related changes of increased osteoid and bone in both the sub-chondral region and in the cortical bone in the shaft
Inhibitory activity against DYRK1a [2]: inhibitory activity
Serum P1NP levels (marker of bone formation) [3]: increase in serum P1NP levels
Serum TRAcP-5b levels (marker of bone resorption) [4]: reduction in serum TRAcP-5b levels
